Experimental data as given in ChEMBL document CHEMBL1201862, “PubChem BioAssay data set” (2004).
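Exposure lasted 48 hours, with cells grown in 96-well plates and compounds tested at five concentrations. GI50 is the concentration that inhibits growth by half.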 Active and inactive are the calls of the source. Rule as the data show it: active = GI50 up to about 1.1 µM and inactive = higher.

Assays:
Assay in all cases: DTP human tumour cell line panel, 48 h
RXF 393 = tested on: RXF 393
EKVX = tested on: EKVX
K562 = tested on: K562
HT-29 = tested on: HT-29
HOP-92 = tested on: HOP-92
OVCAR-5 = tested on: OVCAR-5
SNB-19 = tested on: SNB-19
DU-145 = tested on: DU-145
HOP-62 = tested on: HOP-62
M14 = tested on: M14
MCF7 = tested on: MCF7
NCI-H226 = tested on: NCI-H226
OVCAR-4 = tested on: OVCAR-4
Malme-3M = tested on: Malme-3M
NCI/ADR-RES = tested on: NCI/ADR-RES
TK-10 = tested on: TK-10
SF-539 = tested on: SF-539
Hs-578T = tested on: Hs-578T
HCC 2998 = tested on: HCC 2998
MOLT-4 = tested on: MOLT-4

| Structure (SMILES) | GI50 (RXF 393) | GI50 (EKVX) | GI50 (K562) | GI50 (HT-29) | GI50 (HOP-92) | GI50 (OVCAR-5) | GI50 (SNB-19) | GI50 (DU-145) | GI50 (HOP-62) | GI50 (M14) | GI50 (MCF7) | GI50 (NCI-H226) | GI50 (OVCAR-4) | GI50 (Malme-3M) | GI50 (NCI/ADR-RES) | GI50 (TK-10) | GI50 (SF-539) | GI50 (Hs-578T) | GI50 (HCC 2998) | GI50 (MOLT-4) |
| --- | --- | --- | --- | --- | --- | --- | --- | --- | --- | --- | --- | --- | --- | --- | --- | --- | --- | --- | --- | --- |
| NC(=O)Nc1ccc(S(=O)(=O)Nc2ccc(S(N)(=O)=O)cc2)cc1 | > 100 µM (inactive) | > 100 µM (inactive) | > 100 µM (inactive) | > 100 µM (inactive) | 37.2 µM (inactive) | > 100 µM (inactive) | > 100 µM (inactive) | > 100 µM (inactive) | > 100 µM (inactive) | > 100 µM (inactive) | > 100 µM (inactive) | > 100 µM (inactive) | > 100 µM (inactive) | > 100 µM (inactive) | > 100 µM (inactive) | > 100 µM (inactive) | – | – | – | – |
| Cc1c(CNc2ccc(Cl)c(C(=O)NC(CC(=O)O)C(=O)O)c2)ccc2nc(N)nc(N)c12 (stereo not given) | > 39.4 µM (inactive) | 8.15 µM (inactive) | < 0.12 µM (active) | < 0.0208 µM (active) | – | 1.4 µM (inactive) | 0.322 µM (active) | 0.0588 µM (active) | 0.256 µM (active) | 0.0163 µM (active) | 0.499 µM (active) | > 100 µM (inactive) | – | 121 µM (inactive) | – | 5.12 µM (inactive) | 2.62 µM (inactive) | 506 µM (inactive) | 0.256 µM (active) | – |
| COC(=O)CSC1CC(=O)c2c(Cl)sc(Cl)c21 (stereo not given) | > 100 µM (inactive) | > 100 µM (inactive) | > 100 µM (inactive) | > 100 µM (inactive) | > 100 µM (inactive) | > 100 µM (inactive) | > 100 µM (inactive) | > 100 µM (inactive) | > 100 µM (inactive) | > 100 µM (inactive) | > 100 µM (inactive) | – | > 100 µM (inactive) | > 100 µM (inactive) | – | > 100 µM (inactive) | – | > 100 µM (inactive) | > 100 µM (inactive) | > 100 µM (inactive) |
| CN1C(c2ccccc2)CC(C)(O)CC1c1ccccc1 (stereo not given) | > 100 µM (inactive) | > 100 µM (inactive) | > 100 µM (inactive) | > 100 µM (inactive) | > 100 µM (inactive) | > 100 µM (inactive) | > 100 µM (inactive) | – | > 100 µM (inactive) | > 100 µM (inactive) | – | > 100 µM (inactive) | > 100 µM (inactive) | > 100 µM (inactive) | – | > 100 µM (inactive) | > 100 µM (inactive) | – | > 100 µM (inactive) | > 100 µM (inactive) |
| CC(=O)OC(OC(C)=O)c1ncccc1C(=O)OC(C)C | 39.8 µM (inactive) | > 100 µM (inactive) | 18.9 µM (inactive) | 33.3 µM (inactive) | 18.2 µM (inactive) | > 100 µM (inactive) | > 100 µM (inactive) | – | > 100 µM (inactive) | > 100 µM (inactive) | – | > 100 µM (inactive) | > 100 µM (inactive) | > 100 µM (inactive) | – | > 100 µM (inactive) | 56 µM (inactive) | – | 42.6 µM (inactive) | 35.1 µM (inactive) |
| COc1cccc(-n2nnc3c(N)nc(N)nc32)c1 | – | 12.3 µM (inactive) | > 100 µM (inactive) | > 100 µM (inactive) | > 100 µM (inactive) | > 100 µM (inactive) | 48.8 µM (inactive) | > 100 µM (inactive) | > 100 µM (inactive) | > 100 µM (inactive) | > 100 µM (inactive) | > 100 µM (inactive) | > 100 µM (inactive) | > 100 µM (inactive) | > 100 µM (inactive) | > 100 µM (inactive) | > 100 µM (inactive) | – | – | > 100 µM (inactive) |
| O=C1CCC(=O)c2cc(Br)ccc2N1 | > 74.1 µM (inactive) | > 63.2 µM (inactive) | > 100 µM (inactive) | > 100 µM (inactive) | > 100 µM (inactive) | > 100 µM (inactive) | > 100 µM (inactive) | – | > 100 µM (inactive) | > 100 µM (inactive) | – | > 100 µM (inactive) | > 100 µM (inactive) | > 100 µM (inactive) | – | > 100 µM (inactive) | > 100 µM (inactive) | – | > 100 µM (inactive) | > 100 µM (inactive) |
| CCCCCC1=C2C(c3ccc(OC)cc3)=C(N)C(c3ccc(OC)cc3)=C3NC(=O)C(C=C1)C32 (stereo not given) | 18.9 µM (inactive) | 92.3 µM (inactive) | 42.1 µM (inactive) | > 100 µM (inactive) | 17.9 µM (inactive) | > 100 µM (inactive) | 25.4 µM (inactive) | 57.5 µM (inactive) | 21.8 µM (inactive) | 59.7 µM (inactive) | 84.3 µM (inactive) | 21.9 µM (inactive) | 23.2 µM (inactive) | 19.5 µM (inactive) | > 100 µM (inactive) | 60.7 µM (inactive) | – | – | > 100 µM (inactive) | 56.4 µM (inactive) |
| CN(C)CCNC(=O)c1cccc(N(C)C(=O)c2ccccc2)c1[N+](=O)[O-] | – | – | > 100 µM (inactive) | > 100 µM (inactive) | – | > 100 µM (inactive) | > 100 µM (inactive) | > 100 µM (inactive) | > 100 µM (inactive) | > 100 µM (inactive) | > 100 µM (inactive) | > 100 µM (inactive) | – | > 100 µM (inactive) | > 100 µM (inactive) | > 100 µM (inactive) | > 100 µM (inactive) | > 100 µM (inactive) | > 100 µM (inactive) | > 100 µM (inactive) |
| C1CC[C@H]2SSC3CCCC[C@H]3SSC2C1 (stereo not given in full) | – | > 100 µM (inactive) | > 100 µM (inactive) | > 100 µM (inactive) | > 100 µM (inactive) | > 100 µM (inactive) | > 100 µM (inactive) | > 100 µM (inactive) | > 100 µM (inactive) | > 100 µM (inactive) | > 100 µM (inactive) | – | > 100 µM (inactive) | – | > 100 µM (inactive) | > 100 µM (inactive) | > 100 µM (inactive) | – | > 100 µM (inactive) | > 100 µM (inactive) |
| Cc1ccccc1-n1c(=O)c2ncn(CCCl)c2n(-c2ccccc2C)c1=S | > 100 µM (inactive) | > 100 µM (inactive) | > 100 µM (inactive) | > 100 µM (inactive) | > 100 µM (inactive) | > 100 µM (inactive) | – | > 100 µM (inactive) | > 100 µM (inactive) | > 100 µM (inactive) | > 100 µM (inactive) | > 100 µM (inactive) | > 100 µM (inactive) | – | > 100 µM (inactive) | > 100 µM (inactive) | > 100 µM (inactive) | – | > 100 µM (inactive) | > 100 µM (inactive) |
| O=c1[nH]n(Cc2ccccn2)c2ccc([N+](=O)[O-])cc12 | > 100 µM (inactive) | > 100 µM (inactive) | > 100 µM (inactive) | > 100 µM (inactive) | > 100 µM (inactive) | > 100 µM (inactive) | > 100 µM (inactive) | > 100 µM (inactive) | > 100 µM (inactive) | > 100 µM (inactive) | – | > 100 µM (inactive) | > 100 µM (inactive) | > 100 µM (inactive) | > 100 µM (inactive) | > 100 µM (inactive) | > 100 µM (inactive) | > 100 µM (inactive) | > 100 µM (inactive) | > 100 µM (inactive) |
